Data published in US20260262643A1, “HERBICIDAL BENZOXAZINES” (FMC CORPORATION, priority 2022, published 2026).

Experiments:
barnyardgrass [1] = assay: Test C preemergence; assay type: in vivo, Echinochloa crusgalli; details: Preemergence, 1000 g ai/ha; visual rating after 10 days, 0 to 100 scale (0 no effect, 100 complete control)
In short: (§1)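 Soil-applied (pre) and foliar (post, 1–2 leaf, 2–10 cm) sprays; surfactant-containing non-phytotoxic solvent vehicle; loam/sand substrate. Readout: visual % control at 10 d, greenhouse, versus untreated.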

blackgrass [2] = assay: Test C preemergence; assay type: in vivo, Alopecurus myosuroides; details: Preemergence, 1000 g ai/ha; visual rating after 10 days, 0 to 100 scale (0 no effect, 100 complete control)
In short: as §1

green foxtail [3] = assay: Test C preemergence; assay type: in vivo, Setaria viridis; details: Preemergence, 1000 g ai/ha; visual rating after 10 days, 0 to 100 scale (0 no effect, 100 complete control)
In short: as §1

kochia [4] = assay: Test C preemergence; assay type: in vivo, Bassia scoparia; details: Preemergence, 1000 g ai/ha; visual rating after 10 days, 0 to 100 scale (0 no effect, 100 complete control)
In short: as §1

pigweed, palmer [5] = assay: Test C preemergence; assay type: in vivo, Amaranthus palmeri; details: Preemergence, 1000 g ai/ha; visual rating after 10 days, 0 to 100 scale (0 no effect, 100 complete control)
In short: as §1

ragweed [6] = assay: Test C preemergence; assay type: in vivo, Ambrosia artemisiifolia; details: Preemergence, 1000 g ai/ha; visual rating after 10 days, 0 to 100 scale (0 no effect, 100 complete control)
In short: as §1

ryegrass, Italian [7] = assay: Test C preemergence; assay type: in vivo, Lolium multiflorum; details: Preemergence, 1000 g ai/ha; visual rating after 10 days, 0 to 100 scale (0 no effect, 100 complete control)
In short: as §1

barnyardgrass [8] = assay: Test C postemergence; assay type: in vivo, Echinochloa crusgalli; details: Postemergence, 1000 g ai/ha; 0 to 100 scale, 0 no effect, 100 complete control
In short: as §1

blackgrass [9] = assay: Test C postemergence; assay type: in vivo, Alopecurus myosuroides; details: Postemergence, 1000 g ai/ha, 10 days, visual 0 to 100 scale (0 no effect, 100 complete control)
In short: as §1

green foxtail [10] = assay: Test C postemergence; assay type: in vivo, Setaria viridis; details: Postemergence, 1000 g ai/ha, 10 days, visual 0 to 100 scale (0 no effect, 100 complete control)
In short: as §1

kochia [11] = assay: Test C postemergence; assay type: in vivo, Bassia scoparia; details: Postemergence, 1000 g ai/ha, 10 days, visual 0 to 100 scale (0 no effect, 100 complete control)
In short: as §1

pigweed, palmer [12] = assay: Test C postemergence; assay type: in vivo, Amaranthus palmeri; details: Postemergence, 1000 g ai/ha, 10 days, visual 0 to 100 scale (0 no effect, 100 complete control)
In short: as §1

ragweed [13] = assay: Test C postemergence; assay type: in vivo, Ambrosia artemisiifolia; details: Postemergence, 1000 g ai/ha, 10 days, visual 0 to 100 scale (0 no effect, 100 complete control)
In short: as §1

ryegrass, Italian [14] = assay: Test C postemergence; assay type: in vivo, Lolium multiflorum; details: Postemergence, 1000 g ai/ha, 10 days, visual 0 to 100 scale (0 no effect, 100 complete control)
In short: as §1

galium = assay: Test C postemergence; assay type: in vivo, Galium aparine; details: Postemergence, 1000 g ai/ha, 10 days, visual 0 to 100 scale (0 no effect, 100 complete control)
In short: as §1

horseweed = assay: Test C postemergence; assay type: in vivo, Erigeron canadensis; details: Postemergence, 1000 g ai/ha, 10 days, visual 0 to 100 scale (0 no effect, 100 complete control)
In short: as §1

barnyardgrass [15] = assay: Test D flooded paddy test; assay type: in vivo, Echinochloa crus-galli; details: 250 g ai/ha, applied to paddy water, visual rating after 13 to 14 days, scale 0 to 100 (0 no effect, 100 complete control)
In short: (§2)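 Post-flood water application at the 2-leaf stage; 3 cm flood depth kept constant; visual control rating 0–100 after 13–14 days greenhouse growth.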

ducksalad = assay: Test D flooded paddy test; assay type: in vivo, Heteranthera limosa; details: 250 g ai/ha, applied to paddy water, visual rating after 13 to 14 days, scale 0 to 100 (0 no effect, 100 complete control)
In short: as §2

rice = assay: Test D flooded paddy test; assay type: in vivo, Oryza sativa; details: 250 g ai/ha, applied to paddy water, visual rating after 13 to 14 days, scale 0 to 100 (0 no effect, 100 complete control)
In short: as §2

sedge, umbrella = assay: Test D flooded paddy test; assay type: in vivo, Cyperus difformis; details: 250 g ai/ha, applied to paddy water, visual rating after 13 to 14 days, scale 0 to 100 (0 no effect, 100 complete control)
In short: as §2

For `Cc1nccc(-c2cccc(C(=O)N3C[C@H](C)Oc4c(C)cccc43)c2)n1` [Compound 250], which “Plant response rating, Barnyardgrass” value (barnyardgrass [1]) is on record?
Its value is 90.

And the “Plant response rating, Blackgrass” value (blackgrass [2])?
Its value is 30.

And the “Plant response rating, Foxtail, Green” value (green foxtail [3])?
The value was 100.

What about the “Plant response rating, Kochia” value (kochia [4]) of the same molecule?
The value was 80.

And the “Plant response rating, Pigweed, Palmer” value (pigweed, palmer [5])?
Its value is 80.

And the “Plant response rating, Ragweed” value (ragweed [6])?
The value was 0.

And the “Plant response rating, Ryegrass, Italian” value (ryegrass, Italian [7])?
Its value is 90.

What about the “Plant response rating, Barnyardgrass” value (barnyardgrass [8]) of the same molecule?
Its value is 50.

What about the “Plant response rating, Blackgrass” value (blackgrass [9]) of the same molecule?
Its value is 20.

And the “Plant response rating, Foxtail, Green” value (green foxtail [10])?
Its value is 80.

And the “Plant response rating, Kochia” value (kochia [11])?
The value was 70.

What about the “Plant response rating, Pigweed, Palmer” value (pigweed, palmer [12]) of the same molecule?
Its value is 50.

And the “Plant response rating, Ragweed” value (ragweed [13])?
The value was 50.

What about the “Plant response rating, Ryegrass, Italian” value (ryegrass, Italian [14]) of the same molecule?
The value was 40.

And the “Plant response rating, Galium” value (galium)?
Its value is 50.

What about the “Plant response rating, Horseweed” value (horseweed) of the same molecule?
The value was 0.

What about the “Plant response rating, Barnyardgrass (Flood)” value (barnyardgrass [15]) of the same molecule?
The value was 0.

And the “Plant response rating, Ducksalad (Flood)” value (ducksalad)?
Its value is 0.

What about the “Plant response rating, Rice (Flood)” value (rice) of the same molecule?
The value was 0.

And the “Plant response rating, Sedge, Umbrella (Flood)” value (sedge, umbrella)?
The value was 0.
